{
  "source": "patent EP0624573A1",
  "about": "“Iodo vitamin D3 compounds and method for preparing same” (WISCONSIN ALUMNI RESEARCH FOUNDATION, priority 1993, dated 1994)",
  "key": {"HL-60 cells": {"system": "HL-60 cells", "assay": "HL-60 differentiation assay, NBT (nitroblue tetrazolium reduction)", "format": "cell-based, human", "details": "for percent of HL-60 cells having differentiated to monocytes: NBT assay, concentration of 1 x 10⁻⁷ molar (Fig. 1); for potency in promoting the differentiation of leukemia cells: in words, compared with 1α,25-dihydroxyvitamin D₃ (Fig. 1)", "description": "This is illustrated by the biological assay results obtained for the claimed 22-iodo-vitamin D₃ compounds, which are summarized in Figs. 1 and 2, and Table 1. […] Differentiation activity was assessed by a standard differentiation assay, abbreviated in Fig. 1 as NBT (nitroblue tetrazolium reduction). The assay was conducted according to known procedures, as given, for example, by DeLuca et al U. S. Patent 4,717,721 and Ostrem et al, J. Biol. Chem. 262, 14164, 1987. For the assay, the differentiation activity of the test compounds is expressed in terms of the percent of HL-60 cells having differentiated to monocytes in response to a given concentration of test compound."}, "[1]": {"assay": "Bone calcium mobilization (serum calcium) in vitamin D-deficient, low calcium diet rats", "format": "in vivo", "details": "for Bone Calcium Mobilization (Serum Calcium): serum on day 7", "description": "(§1) Rats were fed the vitamin D-deficient, low calcium (0.02%) diet for 3 weeks and then given the indicated dose in 0.1 ml propylene glycol:ethanol (95:5) intraperitoneally each day for 6 days. On day 7, serum was analyzed for calcium and the duodenum used to measure intestinal calcium transport as described by Martin et al. Am. J. Physiol."}, "[2]": {"assay": "Intestinal calcium transport in vitamin D-deficient, low calcium diet rats", "format": "in vivo", "details": "for Intestinal Calcium Transport (Serosal/Mucosal Ratio): duodenum on day 7", "description": "as §1"}, "[3]": {"details": "dose 1.0 µg/d/6 days intraperitoneally"}, "[4]": {"details": "dose 0.1 µg/d/6 days intraperitoneally"}},
  "data": [
    {"smiles": "C=C1/C(=C\\C=C2/CCC[C@]3(C)[C@@H]([C@H](C)[C@H](I)CCC(C)(C)O)CC[C@@H]23)C[C@@H](O)C[C@@H]1O", "note": "[compound 11, (22R)-iodo-1α,25-dihydroxyvitamin D₃]", "values": [
      {"measurement": "percent of HL-60 cells having differentiated to monocytes", "setting": "HL-60 cells", "result": "the same degree of differentiation"},
      {"measurement": "potency in promoting the differentiation of leukemia cells", "setting": "HL-60 cells", "result": "as potent as 1α,25-dihydroxyvitamin D₃"}
    ]},
    {"smiles": "C=C1/C(=C\\C=C2/CCC[C@]3(C)[C@@H]([C@H](C)[C@@H](I)CCC(C)(C)O)CC[C@@H]23)C[C@@H](O)C[C@@H]1O", "note": "[compound 9, (22S)-iodo-1α,25-dihydroxyvitamin D₃]", "values": [
      {"measurement": "Bone Calcium Mobilization (Serum Calcium)", "setting": "[1]; [3]", "result": "4.9 ± 0.1", "unit": "mg/100 ml"},
      {"measurement": "bone calcium mobilizing activity", "setting": "[1]; in words, 1µg per day for six days", "result": "little or no bone calcium mobilizing activity"},
      {"measurement": "percent of HL-60 cells having differentiated to monocytes", "setting": "HL-60 cells", "result": "the same degree of differentiation"},
      {"measurement": "potency in promoting the differentiation of leukemia cells", "setting": "HL-60 cells", "result": "as potent as 1α,25-dihydroxyvitamin D₃"},
      {"measurement": "biological activity in intestinal calcium transport relative to that of 1,25-(OH)₂D₃", "setting": "[2]; Table 1 (1.0 µg/d versus 0.1 µg/d of 1,25-(OH)₂D₃)", "result": "about double"},
      {"measurement": "Intestinal Calcium Transport (Serosal/Mucosal Ratio)", "setting": "[2]; [3]", "result": "22.8 ± 1.4"}
    ]},
    {"smiles": "C=C1/C(=C\\C=C2/CCC[C@]3(C)[C@@H]([C@H](C)CCCC(C)(C)O)CC[C@@H]23)C[C@@H](O)C[C@@H]1O", "note": "[1,25-(OH)₂D₃, 1α,25-dihydroxyvitamin D₃, reference compound]", "values": [
      {"measurement": "Bone Calcium Mobilization (Serum Calcium)", "setting": "[1]; [4]", "result": "5.9 ± 0.3", "unit": "mg/100 ml"},
      {"measurement": "percent of HL-60 cells having differentiated to monocytes", "setting": "HL-60 cells", "result": "~90", "unit": "%"},
      {"measurement": "Intestinal Calcium Transport (Serosal/Mucosal Ratio)", "setting": "[2]; [4]", "result": "11.2 ± 1.2"}
    ]}
  ]
}
